According to US20240327426A1, “CRYSTALLINE FORMS OF CEFTIBUTEN” (QPEX BIOPHARMA, INC., priority 2021, published 2024):

Tests used:
Format in all cases: physicochemical
[1] = Karl Fischer moisture content of ceftibuten hydrate batches; details: batches prepared by procedure of Example 1, dried at 30° C. in a vacuum oven
Method: (§1) In a reaction vessel are charged 400 mL of demineralized water, 37.0 g crude Ceftibuten and 190 mL acetone at 20-25° C. To this mixture is added with stirring a solution of 22.1 g NaHCO3 and 252.2 mL of demineralized water, keeping the pH at 6.5-6.9. The pH is then adjusted to 6.5-6.7 using 15% aqueous H2SO4. To the resulting solution are charged 13.8 g aluminum oxide, 5 g Norit charcoal, 1.5 g Na2S2O4 and 0.25 g disodium EDTA. The mixture is stirred for 20-25 min maintaining pH at 6.5-6.7 with 15% aqueous H2SO4, and is then filtered and washed with 200 mL of demineralized water. The filtrate is added over 20-30 min to a second vessel containing 630 mL water, 81 g malic acid and 175 g 15% aqueous H2SO4, maintaining the temperature at 20-25° C. After stirring for 50-70 min, the pH is adjusted to 2.9-3.1 over 20-25 min at 20-25° C. with a solution constituted by 30 g of K2CO3 and 70 g of demineralized water. This mixture is stirred for 2-2.5 hours, after which it is filtered and washed 5 times with demineralized water (250 mL each). The wet product is dried at 30° C. in a vacuum oven. Depending on the extent of drying, the resulting product may be Form A, Form B, or a mixture of Forms A and B. Three batches prepared by this procedure are shown in Table 1 below.
Karl Fischer analyses were carried out using a Mettler-Toledo C20 Coulometric KF titrator. The instrument was calibrated using a Hydranal water standard containing 1% water. The titrant was a Hydranal methanol solution.

[2] = Form stability upon storage/shipping at ambient temperature and humidity
Method: as §1

[3] = Physical stability under relative humidity conditions, checked by X-ray powder diffraction
Text: In some embodiments, Form A of the compound of Formula (I) may contain between two to three molar equivalents of water. Samples of Form A of the compound of Formula (I) were exposed to several relative humidity conditions ranging from 15% to 100% relative humidity for a period of 14 days, after which an X-ray powder diffraction was taken. In one embodiment, samples Form A of the compound of Formula (I) were exposed to several relative humidity conditions, including 15% relative humidity, 30% relative humidity, 45% relative humidity, 60% relative humidity, 75% relative humidity, and 100% relative humidity for a period of 14 days, after which an X-ray powder diffraction was taken. […] In some embodiments, Form B of the compound of Formula (I) may contain between two to three molar equivalents of water. […] X-ray diffraction was used to characterize the compound of Formula (I). A Rigaku Smart-Lab X-ray diffraction system was configured for reflection Bragg-Brentano geometry using a line source X-ray beam. The x-ray source was a Cu Long Fine Focus tube that may be operated at 40 kV and 44 mA. That source provides an incident beam profile at the sample that changes from a narrow line at high angles to a broad rectangle at low angles. […] Each sample was analyzed from 2 to 40° 2θ using a continuous scan of 6° 2θ per minute with an effective step size of 0.02° 2θ.

[4] = Moisture sorption-desorption (dynamic vapor sorption) analysis; details: for Crystalline form after moisture sorption-desorption analysis: 25° C., 5 to 95% RH adsorption and 95 to 5% RH desorption, 10% RH steps
Method: In one embodiment, moisture sorption-desorption analyses were taken after running the moisture sorption-desorption experiments. […] DVS analysis was carried out TA Instruments Q5000 Dynamic Vapor Sorption analyzer. The instrument was calibrated with standard weights and a sodium bromide standard for humidity. Samples were analyzed at 25° C. with a maximum equilibration time of 60 minutes in 10% relative humidity (RH) steps from 5 to 95% RH (adsorption cycle) and from 95 to 5% RH (desorption cycle).

[5] = Differential scanning calorimetry (DSC); details: 25° C. to 350° C. at 10° C. per minute, nitrogen purge
Method: DSC analysis was carried out using a TA Instruments Q2500 Discovery Series instrument. The instrument temperature calibration was performed using indium. The DSC cell was kept under a nitrogen purge of ˜50 mL per minute during the analysis. The sample was placed in a standard, crimped, aluminum pan and was heated from approximately 25° C. to 350° C. at a rate of 10° C. per minute.

SMILES | Crystalline form change / stability upon storage/shipping [2] | Hygroscopicity [4] | Crystalline form after moisture sorption-desorption analysis [4] | Dehydration temperature during heating [5] | also measured
Nc1nc(/C(=C/CC(=O)O)C(=O)N[C@@H]2C(=O)N3C(C(=O)O)=CCS[C@H]23)cs1 [Batch 1, ceftibuten] | converted from a mixture to all Form B | – | – | – | Moisture Content [1]: 9.44%
Nc1nc(/C(=C/CC(=O)O)C(=O)N[C@@H]2C(=O)N3C(C(=O)O)=CCS[C@H]23)cs1 [Batch 2, ceftibuten] | – | – | – | – | Moisture Content ([1]; listed as 2): 8.60%
Nc1nc(/C(=C/CC(=O)O)C(=O)N[C@@H]2C(=O)N3C(C(=O)O)=CCS[C@H]23)cs1 [Batch 3, ceftibuten] | – | – | – | – | Moisture Content ([1]; listed as 3): 11.68%
Nc1nc(/C(=C/CC(=O)O)C(=O)N[C@@H]2C(=O)N3C(C(=O)O)=CCS[C@H]23)cs1 [Form A, ceftibuten] | – | moderately hygroscopic | convert to Form B | approximately 100 °C | Form conversion under extremely dry conditions ([3]; 0% relative humidity): may convert to Form B; X-ray powder diffraction form after relative humidity exposure ([3]; 15%, 30%, 45%, 60%, 75% and 100% relative humidity, 14 days): match for Form A
Nc1nc(/C(=C/CC(=O)O)C(=O)N[C@@H]2C(=O)N3C(C(=O)O)=CCS[C@H]23)cs1 [Form B, ceftibuten] | increased stability | moderately hygroscopic | remain stable and unchanged | approximately 100 °C | –
